Assay results reported in patent publication US11642332B2, “(2R,4R)-5-(5′-chloro-2′-fluorobiphenyl-4-yl)-2-hydroxy-4-[(5-methyloxazole-2-carbonyl)amino]pentanoic acid” (THERAVANCE BIOPHARMA R&D IP, LLC, priority 2015, dated 2023).

What was measured:
[1] = target: T1, human neprilysin (EC 3.4.24.11; NEP) (Homo sapiens, UniProt P08473); assay: In vitro assay for the quantitation of inhibitor potency at human NEP; assay type: biochemical; conditions: recombinant human NEP, fluorogenic peptide substrate 10 μM, 37° C.; read-out: pKi at human NEP (converted)
T1 construct: purchased R&D Systems 1182-ZN
Description: The inhibitory activity at human neprilysin (EC 3.4.24.11; NEP) was determined as follows.
Recombinant human NEP was obtained commercially (R&D Systems, Minneapolis, Minn., catalog number 1182-ZN). The fluorogenic peptide substrate Mca-D-Arg-Arg-Leu-Dap-(Dnp)-OH (Medeiros et al. (1997) Braz. J. Med. Biol. Res. 30:1157-62; Anaspec, San Jose, Calif.) was used.
The assay was performed in 384-well white opaque plates at 37° C. using the fluorogenic peptide substrate at a concentration of 10 μM in Assay Buffer (50 mM HEPES, pH 7.5, 100 mM NaCl, 0.01% polyethylene glycol sorbitan monolaurate (Tween-20), 10 μM ZnSO4).
Test compounds were assayed over the range of concentrations from 10 μM to 20 pM. Test compounds were added to the enzyme and incubated for 30 minute at 37° C. prior to initiating the reaction by the addition of substrate. Reactions were terminated after 20 minutes of incubation at 37° C. by the addition of glacial acetic acid to a final concentration of 3.6% (v/v).
Plates were read on a fluorometer with excitation and emission wavelengths set to […]. Inhibition constants were obtained by nonlinear regression of the data using the equation (GraphPad Software, Inc., San Diego, Calif.): v=v0/[1+(I/K′)] where v is the reaction rate, v0 is the uninhibited reaction rate, I is the inhibitor concentration and K′ is the apparent inhibition constant.
The compounds were tested in this assay and found to have pKi values at human NEP as follows.

[2] = Renal excretion of Compound 1 in dog; assay type: in vivo, male beagle dogs; conditions: for Urinary Excretion (approximate % of administered dose excreted in urine) Mean: 0-24 hrs
Description: An important factor for insuring appropriate long term drug dosing and correct steady-state drug concentrations in patients is drug clearance. In general, decreased drug clearance results in higher drug concentrations and greater drug effects. In order to understand renal clearance of Compound 1, the percent of administered dose recovered in urine following a single IV dose was assessed in three animal species. Three separate studies in male Sprague Dawley rats, male beagle dogs and male cynomolgus monkeys, respectively, were conducted and the procedure and experimental results are described below.
Male beagle dogs (N=6, two groups of 3), having body weights of 9.04-10.2 kg and 10.8-11.5 kg, received an IV dose of Compound 1 at 0.1 mg/kg (Group I) and 1.255 mg/kg (Group II) as part of a dosing cassette. Compound 1 was dissolved in PEG-200:ethanol:water (40:10:50) and filtered through a […] polyvinyl difluoride (PVDF) syringe filter prior to administration. The dogs had access to food ad libitum before and after administration of Compound 1. Urine samples were collected on cold packs into pre-weighed containers that were prefilled with 0.5 mL glacial acetic acid. The samples were weighed again and additional glacial acetic acid was added if needed to a final concentration of 2%. The samples were frozen and stored (−80° C.) prior to bioanalysis.
Dog urine concentrations of Compound 1 were determined by LC/MS/MS. Urine study samples (diluted in plasma K2EDTA(1:9)) were vortexed and 25 μL was placed in a 96-well plate. The samples were extracted with 100 μL in acetonitrile with internal standard Glyburide. The extract was centrifuged for 5 minutes at 3100 RPM and 75 μL of supernatant was transferred and mixed with 150 μL water. Samples (12 μL) were injected on a Waters Acquity UPLC BEH C18 (50×2.1 mm, 1.7 μm) column with a flow rate of 0.9 mL/min. Mobile phase A consisted of 95:5:0.1 (v:v:v) water:acetonitrile:formic acid and mobile phase B consisted of 50:50:0.1 (v:v:v) methanol:acetonitrile:formic acid. The gradient elution started with 35% to 90% B from 0.2 to 1.6 min, held at 95% from 1.7 to 2.2 min., followed by a step of 95% to 35% B from 2.20 to 2.30 min. Compound 1 assay range was 0.000100 to 1.00 μg/mL.
The mean amount of urine excreted over a collection period of 24 hrs and the approximate % of administered dose excreted in urine is reported in the table below.

T1 sequence (P08473 52-750 limits assumed): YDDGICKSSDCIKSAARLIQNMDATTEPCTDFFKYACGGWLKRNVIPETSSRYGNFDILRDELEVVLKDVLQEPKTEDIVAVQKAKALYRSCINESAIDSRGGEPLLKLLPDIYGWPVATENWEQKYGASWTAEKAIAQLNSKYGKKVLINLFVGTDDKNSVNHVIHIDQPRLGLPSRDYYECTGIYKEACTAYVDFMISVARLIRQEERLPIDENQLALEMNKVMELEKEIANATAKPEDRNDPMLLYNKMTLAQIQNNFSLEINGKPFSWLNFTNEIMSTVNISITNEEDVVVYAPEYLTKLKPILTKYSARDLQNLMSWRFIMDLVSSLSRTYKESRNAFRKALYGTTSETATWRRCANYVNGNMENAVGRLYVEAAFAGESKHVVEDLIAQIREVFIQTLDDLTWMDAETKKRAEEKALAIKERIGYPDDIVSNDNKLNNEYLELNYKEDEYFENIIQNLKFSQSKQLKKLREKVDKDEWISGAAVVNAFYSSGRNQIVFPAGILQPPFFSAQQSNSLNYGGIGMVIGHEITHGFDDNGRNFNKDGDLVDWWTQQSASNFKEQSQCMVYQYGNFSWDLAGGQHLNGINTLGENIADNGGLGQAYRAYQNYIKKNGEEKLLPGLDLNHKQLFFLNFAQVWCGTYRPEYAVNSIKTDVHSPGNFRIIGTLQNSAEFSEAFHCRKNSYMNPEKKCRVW

Cc1cnc(C(=O)N[C@H](Cc2ccc(-c3cc(Cl)ccc3F)cc2)C[C@@H](O)C(=O)O)o1 [Compound 1, (2R,4R)-5-(5′-Chloro-2′-fluorobiphenyl-4-yl)-2-hydroxy-4-[(5-methyloxazole-2-carbonyl)amino]pentanoic Acid]
Ki [1]: 0.2 nM
Amount of Compound 1 Excreted in Urine over Collection Period (0-24 hrs) Mean ([2]; IV 0.1 mg/kg): 15.8 µg
Urinary Excretion (approximate % of administered dose excreted in urine) Mean ([2]; IV 0.1 mg/kg): 0.92%
Amount of Compound 1 Excreted in Urine over Collection Period (0-24 hrs) Mean ([2]; IV 1.26 mg/kg): 103 µg
Urinary Excretion (approximate % of administered dose excreted in urine) Mean ([2]; IV 1.26 mg/kg): 1.67%
